Laboratory results as given in patent US10221163B2 (priority 2015, dated 2019).
Where two headings read alike, the source gives them in different places.

Columns and labels:
[1] = tested on: Pseudomonas aeruginosa MB9798 vs MB9799
Summary of the method: (§1)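 P. aeruginosa PAO1-derived IMP-1 strains, efflux+ MB9798 and efflux− MB9799, tested by standard microbroth MIC with imipenem and/or ceftazidime fixed, usually at CLSI breakpoint, plus fixed class A/C β-lactamase inhibitor against AmpC. Inhibitor titrated; concentration restoring susceptibility recorded; MB9798/MB9799 fold difference indicates efflux.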

NDM-1 = NDM-1 (Klebsiella pneumoniae, UniProt C7C422); test: biochemical; format: biochemical; conditions: fluorescence assay, CCF2-FA substrate, 1 pM enzyme, 2 hours at 25° C.; read-out: NDM-1 IC50
Summary of the method: (§2)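 Fluorescence assay of metallo-β-lactamase activity using CCF2-FA, a cephalosporin-linked 7-hydroxycoumarin–fluorescein substrate. Inhibitor, enzyme and substrate were incubated together for 2 hours at 25° C. IC50 came from a 4-parameter fit of inhibition versus inhibitor concentration.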

IMP-1 = IMP-1 (Serratia marcescens, UniProt P52699); test: biochemical; format: biochemical; conditions: fluorescence assay, CCF2-FA substrate, 2 pM enzyme, 2 hours at 25° C.; read-out: IMP-1 IC50
Summary of the method: as §2

[2] = tested on: Pseudomonas aeruginosa efflux− (MB9799), IMP-1; format: cell-based; conditions: C, D serine β-lactamase inhibitor closely related to relebactam; for Concentration of metallo-β-lactamase inhibitor which restores susceptibility of efflux − (MB9799) strain to imipenem: imipenem at 2 μg/mL, in the presence of a class A; for P. aeruginosa expressing IMP-1, efflux − (MB9799) MITC95: concentration restoring susceptibility to imipenem at 2 μg/mL in the presence of a class A
Summary of the method: as §1

[3] = tested on: Escherichia coli expressing NDM-1 (CLB30005, CLB30016); format: cell-based; conditions: with imipenem 1 μg/ml; for Escherichia coli MITC95: NDM-1 strain, 95% inhibition of growth; for Escherichia coli expressing NDM-1 (CLB30016) MITC95: 95% inhibition of bacterial growth
Summary of the method: (§3)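 Clinical strains grown overnight on blood agar at 35°C, colonies suspended in saline, diluted 1:100 into 1.1×CAMHB. Test compound titrated with imipenem at 1 μg/ml; incubated 22–24 h at 35°C, growth read by absorbance.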

[4] = tested on: Klebsiella pneumoniae expressing VIM-1 (IHMA599644); format: cell-based; conditions: for Klebsiella pneumoniae MITC95: VIM-1 strain IHMA599644, with imipenem 1 μg/ml, 95% inhibition of growth; for Klebsiella pneumoniae expressing VIM-1 (IHMA599644) MITC95: with imipenem 1 μg/ml, 95% inhibition of bacterial growth
Summary of the method: as §3

[5] = tested on: Serratia marcescens expressing IMP-1 (CL5741); format: cell-based; conditions: for Serratia marcescens MITC95: IMP-1 strain CL5741, with imipenem 1 μg/ml, 95% inhibition of growth; for Serratia marcescens expressing IMP-1 (CL5741) MITC95: with imipenem 1 μg/ml, 95% inhibition of bacterial growth
Summary of the method: as §3

VIM-1 = VIM-1 (Pseudomonas aeruginosa (strain ATCC 15692 / DSM 22644 / CIP 104116 / JCM 14847 / LMG 12228 / 1C / PRS 101 / PAO1), UniProt A0A0F7KYQ8); test: biochemical; conditions: CCF2-FA substrate, 30 pM enzyme, 2 hours at 25° C.
Summary of the method: as §2

[6] = tested on: Pseudomonas aeruginosa efflux+ (MB9798), IMP-1; format: cell-based; parameters: Concentration of metallo-β-lactamase inhibitor which restores susceptibility of efflux + (MB9798) strain to imipenem: unit not given here; conditions: C, D serine β-lactamase inhibitor closely related to relebactam; for Concentration of metallo-β-lactamase inhibitor which restores susceptibility of efflux + (MB9798) strain to imipenem: imipenem at 2 μg/mL, in the presence of a class A; for P. aeruginosa expressing IMP-1, efflux + (MB9798) MITC95: concentration restoring susceptibility to imipenem at 2 μg/mL in the presence of a class A
Summary of the method: as §1

[7] = fold difference between efflux+ (MB9798) and efflux− (MB9799) strains, imipenem at 2 μg/mL
[8] = fluorescence assay, read-out: VIM-1 IC50
[9] = ratio MITC95 PA_9798/MITC95 PA_9799

Chain of IMP-1 (P52699 whole entry, looked up, species assumed): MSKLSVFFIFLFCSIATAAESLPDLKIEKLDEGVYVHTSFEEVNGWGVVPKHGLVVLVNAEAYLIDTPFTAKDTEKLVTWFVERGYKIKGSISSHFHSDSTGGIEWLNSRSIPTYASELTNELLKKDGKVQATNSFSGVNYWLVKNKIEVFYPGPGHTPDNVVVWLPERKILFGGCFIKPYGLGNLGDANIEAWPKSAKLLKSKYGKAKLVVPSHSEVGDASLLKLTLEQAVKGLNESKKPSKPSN
Chain of NDM-1 (C7C422 whole entry, looked up, species assumed): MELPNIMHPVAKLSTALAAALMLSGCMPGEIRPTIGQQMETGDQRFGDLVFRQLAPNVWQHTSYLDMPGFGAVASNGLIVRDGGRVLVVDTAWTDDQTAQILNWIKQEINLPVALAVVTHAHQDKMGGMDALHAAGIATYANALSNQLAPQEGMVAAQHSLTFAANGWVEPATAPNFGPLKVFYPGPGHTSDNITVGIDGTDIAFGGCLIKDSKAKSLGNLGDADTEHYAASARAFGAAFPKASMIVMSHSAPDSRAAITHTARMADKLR

SMILES | Efflux ratio [1, 7] | IC50 (NDM-1) | IC50 (IMP-1) | Concentration of metallo-β-lactamase inhibitor which restores susceptibility of efflux − (MB9799) strain to imipenem [2] | Escherichia coli MITC95 [3] | Klebsiella pneumoniae MITC95 [4] | Serratia marcescens MITC95 [5] | IC50 (VIM-1; [8]) | Concentration of metallo-β-lactamase inhibitor which restores susceptibility of efflux + (MB9798) strain to imipenem [6] | Efflux ratio [1, 9] | P. aeruginosa expressing IMP-1, efflux − (MB9799) MITC95 [2] | Escherichia coli expressing NDM-1 (CLB30016) MITC95 [3] | Klebsiella pneumoniae expressing VIM-1 (IHMA599644) MITC95 [4] | Serratia marcescens expressing IMP-1 (CL5741) MITC95 [5] | IC50 (VIM-1; VIM-1 IC50, fluorescence assay) | P. aeruginosa expressing IMP-1, efflux + (MB9798) MITC95 [6]
NCc1nc2cc(-c3ccc(S(=O)(=O)N[C@@H](CN)CO)c(S(N)(=O)=O)c3-c3nn[nH]n3)ccc2[nH]1 [Example 474, (S)-N1-(1-amino-3-hydroxypropan-2-yl)-4-(2-(aminomethyl)-1H-benzo[d]imidazol-5-yl)-3-(2H-tetrazol-5-yl)benzene-1,2-disulfonamide] | 1.00 | 0.104 nM | 0.522 nM | 0.7813 | 0.7813 µM | 1.563 µM | 1.563 µM | 0.141 nM | 0.7813 | – | – | – | – | – | – | –
Nc1nc2c(-c3ccc(S(=O)(=O)N[C@H]4CN[C@@H](CO)C4)c(S(N)(=O)=O)c3-c3nnn[nH]3)cccc2s1 [Example 81, 4-(2-amino-1,3-benzothiazol-4-yl)-N1-[(3R,5R)-5-(hydroxymethyl)pyrrolidin-3-yl]-3-(1H-tetrazol-5-yl)benzene-1,2-disulfonamide] | – | 0.0286 nM | 0.191 nM | – | – | – | – | – | – | 0.50 | 1.563 µM | 1.563 µM | 1.563 µM | 1.563 µM | 0.135 nM | 0.7813 µM
N[C@H]1C=C(c2ccc(S(=O)(=O)N[C@@H]3CCNC3)c(S(N)(=O)=O)c2-c2nn[nH]n2)CCC1 [Example 339, (R)-5′-amino-N4-((R)-pyrrolidin-3-yl)-2-(2H-tetrazol-5-yl)-2′,3′,4′,5′-tetrahydro-[1,1′-biphenyl]-3,4-disulfonamide] | – | 11.9 nM | 34.1 nM | – | 0.7813 µM | 0.7813 µM | 1.563 µM | – | – | 4.00 | 1.563 µM | – | – | – | 2.1 nM | 6.25 µM
C[C@@H](CN)NS(=O)(=O)c1ccc(-c2ccnc(N)c2)c(-c2nn[nH]n2)c1S(N)(=O)=O [Example 398] | 4.00 | 2.54 nM | 7.45 nM | 1.563 | 3.125 µM | 3.125 µM | 1.563 µM | 0.939 nM | 6.25 | – | – | – | – | – | – | –
NS(=O)(=O)c1c(S(=O)(=O)N[C@@H]2CCNC2)ccc(-c2ccc3nonc3c2)c1-c1nnn[nH]1 [Example 133, (R)-4-(benzo[c][1,2,5]oxadiazol-5-yl)-N1-(pyrrolidin-3-yl)-3-(1H-tetrazol-5-yl)benzene-1,2-disulfonamide] | – | 0.341 nM | 0.816 nM | – | – | – | – | 0.118 nM | – | 8.00 | 0.7813 µM | 0.7813 µM | 1.563 µM | 1.563 µM | – | 6.25 µM
NCCNS(=O)(=O)c1ccc(-c2cccc(-c3n[nH]c(N)n3)c2)c(-c2nn[nH]n2)c1S(N)(=O)=O [Example 228, 3′-(5-amino-1H-1,2,4-triazol-3-yl)-N4-(2-aminoethyl)-2-(2H-tetrazol-5-yl)-[1,1′-biphenyl]-3,4-disulfonamide] | – | 0.0864 nM | 0.562 nM | – | – | – | – | 0.15 nM | – | 1.00 | 1.563 µM | 0.7813 µM | 3.125 µM | 1.563 µM | – | 1.563 µM
NCCNc1cc(-c2ccc(S(=O)(=O)NCCO)c(S(N)(=O)=O)c2-c2nn[nH]n2)ccn1 [Example 457, 4-(2-((2-aminoethyl)amino)pyridin-4-yl)-N1-(2-hydroxyethyl)-3-(2H-tetrazol-5-yl)benzene-1,2-disulfonamide] | 31.99 | 3.68 nM | 5.29 nM | 1.563 | 1.563 µM | 6.25 µM | 3.125 µM | 0.49 nM | 50 | – | – | – | – | – | – | –
NCC(CN)NS(=O)(=O)c1ccc(-c2cccc(-c3c[nH]c(N)n3)c2)c(-c2nn[nH]n2)c1S(N)(=O)=O [Example 435] | 2.00 | 0.46 nM | 1.78 nM | 1.563 | 1.563 µM | 3.125 µM | 3.125 µM | 1.21 nM | 3.125 | – | – | – | – | – | – | –
Nc1nc2c(-c3ccc(S(=O)(=O)NCC(=O)O)c(S(N)(=O)=O)c3-c3nn[nH]n3)cccc2s1 [Example 153, ((4-(2-aminobenzo[d]thiazol-4-yl)-2-sulfamoyl-3-(2H-tetrazol-5-yl)phenyl)sulfonyl)glycine] | – | 0.28 nM | 0.704 nM | – | – | – | – | – | – | 1.00 | 12.5 µM | 50 µM | 100 µM | 25 µM | 1.05 nM | 12.5 µM
NS(=O)(=O)c1c(S(=O)(=O)N[C@@H]2CCNC2)ccc(-c2cnc3cc[nH]c3c2)c1-c1nn[nH]n1 [Example 282, (R)-N1-(pyrrolidin-3-yl)-4-(1H-pyrrolo[3,2-b]pyridin-6-yl)-3-(2H-tetrazol-5-yl)benzene-1,2-disulfonamide] | – | 0.0446 nM | 1.13 nM | – | 0.7813 µM | 1.563 µM | 0.7813 µM | – | – | 1.00 | 0.7813 µM | – | – | – | 0.133 nM | 0.7813 µM
CC(C)(CN)NS(=O)(=O)c1ccc(-c2cccnc2N)c(-c2nn[nH]n2)c1S(N)(=O)=O [Example 211, N1-(1-amino-2-methylpropan-2-yl)-4-(2-aminopyridin-3-yl)-3-(2H-tetrazol-5-yl)benzene-1,2-disulfonamide] | – | 0.156 nM | 2.25 nM | – | – | – | – | 0.182 nM | – | 4.00 | 3.125 µM | 1.563 µM | 6.25 µM | 3.125 µM | – | 12.5 µM
N[C@H](CO)c1nc2c(-c3ccc(S(=O)(=O)N[C@H]4CNC[C@H]4N)c(S(N)(=O)=O)c3-c3nn[nH]n3)cccc2[nH]1 [Example 323, 4-(2-((S)-1-amino-2-hydroxyethyl)-1H-benzo[d]imidazol-4-yl)-N1-((3S,4R)-4-aminopyrrolidin-3-yl)-3-(2H-tetrazol-5-yl)benzene-1,2-disulfonamide] | – | 0.219 nM | 3.39 nM | – | 1.563 µM | 3.125 µM | 3.125 µM | – | – | 1.00 | 1.563 µM | – | – | – | 0.321 nM | 1.563 µM
